Measured values taken from PubChem BioAssay AID248 (DTP/NCI, 2004).
Several values for one entry are separate records, joined by “and”; a condition that tells them apart may be missing. Equal values may be shown once. Toxic doses and inconclusive results are not listed. Cut-off read from the data, not from the text of the source: active = T/C of 150% or more; inactive = T/C below 125%.

Tested on: L1210 leukemia ip in BDF1 mice, survival T/C
Test: NCI In Vivo Anticancer Drug Screen. Data for tumor model L1210 Leukemia (intraperitoneal) in B6D2F1 (BDF1) mice
Conditions: endpoint: mean survival time, higher = longer survival
Outline: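 Tumor cells were implanted, animals were treated, and survival was followed. The result divides the treated measurement by the vehicle-control measurement.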

[1] = dose: 100.0 mg/kg/injection, schedule: Q01DX009 (ip), vehicle: saline
[2] = dose: 200.0 mg/kg/injection, schedule: Q01DX009 (ip), vehicle: saline
[3] = dose: 100.0 mg/kg/injection, schedule: Q04DX002 (ip), vehicle: Klucel (hydroxypropylcellulose) (HPC)
[4] = dose: 200.0 mg/kg/injection, schedule: Q04DX002 (ip), vehicle: Klucel (hydroxypropylcellulose) (HPC)
[5] = dose: 400.0 mg/kg/injection, schedule: Q04DX002 (ip), vehicle: Klucel (hydroxypropylcellulose) (HPC)
[6] = dose: 100.0 mg/kg/injection, schedule: Q01DX001 (ip), vehicle: saline
[7] = dose: 200.0 mg/kg/injection, schedule: Q01DX001 (ip), vehicle: saline
[8] = dose: 400.0 mg/kg/injection, schedule: Q01DX001 (ip), vehicle: saline
[9] = dose: 100.0 mg/kg/injection, schedule: Q04DX003 (ip), vehicle: saline
[10] = dose: 200.0 mg/kg/injection, schedule: Q04DX003 (ip), vehicle: saline
[11] = dose: 400.0 mg/kg/injection, schedule: Q01DX009 (ip), vehicle: saline
[12] = dose: 400.0 mg/kg/injection, schedule: Q04DX003 (ip), vehicle: saline
[13] = dose: 100.0 mg/kg/injection, schedule: Q04DX003 (ip), vehicle: saline with Tween-80
[14] = dose: 200.0 mg/kg/injection, schedule: Q01DX009 (ip), vehicle: saline with Tween-80
[15] = dose: 200.0 mg/kg/injection, schedule: Q04DX003 (ip), vehicle: saline with Tween-80
[16] = dose: 400.0 mg/kg/injection, schedule: Q01DX009 (ip), vehicle: saline with Tween-80
[17] = dose: 400.0 mg/kg/injection, schedule: Q04DX003 (ip), vehicle: saline with Tween-80
[18] = dose: 50.0 mg/kg/injection, schedule: Q01DX009 (ip), vehicle: saline with Tween-80
[19] = dose: 100.0 mg/kg/injection, schedule: Q01DX009 (ip), vehicle: saline with Tween-80

Measured: T/C

COC(CCC#N)c1ccc(C)cc1 (centres undefined)
inactive: dose: 100.0 mg/kg/injection, schedule: Q01DX009 (sc), vehicle: olive oil, sesame oil, peanut oil 102 % of control | dose: 100.0 mg/kg/injection, schedule: Q04DX003 (sc), vehicle: olive oil, sesame oil, peanut oil 108 % of control | dose: 200.0 mg/kg/injection, schedule: Q01DX009 (sc), vehicle: olive oil, sesame oil, peanut oil 91 % of control | dose: 200.0 mg/kg/injection, schedule: Q04DX003 (sc), vehicle: olive oil, sesame oil, peanut oil 108 % of control | dose: 400.0 mg/kg/injection, schedule: Q01DX009 (sc), vehicle: olive oil, sesame oil, peanut oil 98 % of control | dose: 400.0 mg/kg/injection, schedule: Q04DX003 (sc), vehicle: olive oil, sesame oil, peanut oil 96 % of control

CC(=O)OC1COC(NC(=O)NNc2ccccc2)C(OC(C)=O)C1OC(C)=O (centres undefined)
inactive: [1] 88 % of control | dose: 100.0 mg/kg/injection, schedule: Q04DX003 (ip), vehicle: water 94 % of control | [2] 92 % of control | dose: 200.0 mg/kg/injection, schedule: Q04DX003 (ip), vehicle: water 97 % of control | dose: 400.0 mg/kg/injection, schedule: Q04DX003 (ip), vehicle: water 96 % of control

CC(=O)OC1CCC2(C)C(=CCC3C2CCC2(C)C3CC3C(c4ccccc4Cl)=NN(c4ccccc4)C32C#N)C1 (centres undefined)
inactive: [3] 95 % of control | [4] 95 % of control | [5] 95 % of control

CCOC1OC(CO)C(O)C(O)C1O (centres undefined)
inactive: [6] 102 % of control | [7] 98 % of control | [8] 109 % of control

c1cnon1
inactive: [6] 102 % of control | [7] 102 % of control | [8] 95 % of control

CCO/C=C(/C(=O)OCC)C(=O)C(OCC)OCC
inactive: [1] 101 % of control | [9] 95 % of control | [2] 101 % of control | [10] 97 % of control | [11] 98 % of control | [12] 94 % of control

CCCCCCCCCCCCCCCC(=O)Oc1ccc(/C(CC)=C(/CC)c2ccc(OC(=O)CCCCCCCCCCCCCCC)cc2)cc1
inactive: [13] 89 % of control | [14] 91 % of control | [15] 100 % of control | [16] 91 % of control | [17] 89 % of control

O=C(O)CCC(=O)Oc1ccccc1
inactive: dose: 100.0 mg/kg/injection, schedule: Q04DX003 (ip), vehicle: other 92 % of control | dose: 200.0 mg/kg/injection, schedule: Q04DX003 (ip), vehicle: other 106 % of control

CCOC(=O)c1ccc(N=[N+]([O-])c2ccc(C(=O)OCC)cc2)cc1
inactive: [3] 96 % of control | [4] 96 % of control | [5] 100 % of control

OCC1C2CC3C(C2)C13 (centres undefined)
inactive: dose: 100.0 mg/kg/injection, schedule: Q01DX001 (ip), vehicle: carboxymethylcellulose (CMC) 101 % of control | dose: 200.0 mg/kg/injection, schedule: Q01DX001 (ip), vehicle: carboxymethylcellulose (CMC) 93 % of control | dose: 400.0 mg/kg/injection, schedule: Q01DX001 (ip), vehicle: carboxymethylcellulose (CMC) 90 % of control

COc1ccc(OC)c(CBr)c1CBr
inactive: dose: 5.0 mg/kg/injection, schedule: Q01DX001 (ip), vehicle: saline 101 % of control | dose: 10.0 mg/kg/injection, schedule: Q01DX001 (ip), vehicle: saline 98 % of control | dose: 20.0 mg/kg/injection, schedule: Q01DX001 (ip), vehicle: saline 101 % of control | dose: 40.0 mg/kg/injection, schedule: Q01DX001 (ip), vehicle: saline 98 % of control | dose: 80.0 mg/kg/injection, schedule: Q01DX001 (ip), vehicle: saline 104 % of control

CC(=O)Nc1ccc(OC(=O)Nc2ccc(Cl)cc2C(F)(F)F)cc1
inactive: [18] 93 % of control | [19] 100 % of control | [14] 104 % of control

CC1CC(C)(C)N=C(CCC2CCCC2=O)O1 (centres undefined)
inactive: [18] 104 % of control | dose: 50.0 mg/kg/injection, schedule: Q04DX003 (ip), vehicle: saline with Tween-80 95 % of control | [19] 98 % of control | [13] 91 % of control | [14] 100 % of control | [15] 96 % of control | [16] 100 % of control | [17] 91 % of control

C=NNC(=O)c1ccncc1
inactive: [13] 89 % of control | [15] 94 % of control | [17] 88 % of control

Oc1ccc(/C=N/NC(=S)NN2CCOCC2)nc1
inactive: dose: 6.25 mg/kg/injection, schedule: Q01DX009 (ip), vehicle: saline with Tween-80 108 % of control | dose: 12.5 mg/kg/injection, schedule: Q01DX009 (ip), vehicle: saline with Tween-80 116 % of control | dose: 22.0 mg/kg/injection, schedule: Q04DX002 (ip), vehicle: saline with Tween-80 108 % of control | dose: 25.0 mg/kg/injection, schedule: Q01DX009 (ip), vehicle: saline with Tween-80 108 % of control and 119 % of control | dose: 33.0 mg/kg/injection, schedule: Q04DX002 (ip), vehicle: saline with Tween-80 101 % of control | dose: 50.0 mg/kg/injection, schedule: Q04DX002 (ip), vehicle: saline with Tween-80 111 % of control

CC(O)C(=O)[O][Hg][c]1ccccc1 (centres undefined)
inactive: dose: 2.5 mg/kg/injection, schedule: Q01DX009 (ip), vehicle: saline with Tween-80 91 % of control | dose: 2.5 mg/kg/injection, schedule: Q04DX003 (ip), vehicle: saline with Tween-80 92 % of control | dose: 5.0 mg/kg/injection, schedule: Q01DX009 (ip), vehicle: saline with Tween-80 94 % of control | dose: 5.0 mg/kg/injection, schedule: Q04DX003 (ip), vehicle: saline with Tween-80 105 % of control | dose: 10.0 mg/kg/injection, schedule: Q01DX009 (ip), vehicle: saline with Tween-80 98 % of control | dose: 10.0 mg/kg/injection, schedule: Q04DX003 (ip), vehicle: saline with Tween-80 108 % of control

C[N+](C)(C)CC1CCCC1C[N+](C)(C)C (centres undefined)
inactive: dose: 50.0 mg/kg/injection, schedule: Q04DX003 (ip), vehicle: saline 110 % of control | [9] 96 % of control | [10] 102 % of control | [12] 90 % of control

COC1/C=C/OC2(C)Oc3c(C)c(O)c4c(O)c(c(/C=N/N5C(C)CN(Cc6ccc(C)cc6)CC5C)c(O)c4c3C2=O)NC(=O)C(C)=C/C=C/C(C)C(O)C(C)C(O)C(C)C(OC(C)=O)C1C (centres undefined)
inactive: [19] 94 % of control

CSCC(N)CO (centres undefined)
inactive: [1] 94 % of control | [9] 100 % of control | [2] 100 % of control | [10] 103 % of control | [11] 100 % of control | [12] 103 % of control

O=C1NC(=O)C(c2ccccc2)C1=O (centres undefined)
inactive: dose: 50.0 mg/kg/injection, schedule: Q01DX Z (ip), vehicle: other 105 % of control | dose: 100.0 mg/kg/injection, schedule: Q01DX Z (ip), vehicle: other 96 % of control | dose: 200.0 mg/kg/injection, schedule: Q01DX Z (ip), vehicle: other 91 % of control | dose: 400.0 mg/kg/injection, schedule: Q01DX Z (ip), vehicle: other 89 % of control

CCCC/C=C/C(C)O (centres undefined)
inactive: [18] 101 % of control | [19] 105 % of control | [14] 97 % of control

CSc1ncnc2c1ncn2-n1cccc1
inactive: dose: 100.0 mg/kg/injection, schedule: Q01DX001 (ip), vehicle: saline with Tween-80 104 % of control | dose: 100.0 mg/kg/injection, schedule: Q01DX009 (ip), vehicle: Klucel (hydroxypropylcellulose) (HPC) 97 % of control | dose: 100.0 mg/kg/injection, schedule: Q04DX003 (ip), vehicle: Klucel (hydroxypropylcellulose) (HPC) 93 % of control | [13] 103 % of control | dose: 200.0 mg/kg/injection, schedule: Q01DX001 (ip), vehicle: saline with Tween-80 106 % of control | dose: 200.0 mg/kg/injection, schedule: Q01DX009 (ip), vehicle: Klucel (hydroxypropylcellulose) (HPC) 95 % of control | dose: 200.0 mg/kg/injection, schedule: Q04DX003 (ip), vehicle: Klucel (hydroxypropylcellulose) (HPC) 96 % of control | [15] 101 % of control | dose: 400.0 mg/kg/injection, schedule: Q01DX001 (ip), vehicle: saline with Tween-80 95 % of control | dose: 400.0 mg/kg/injection, schedule: Q01DX009 (ip), vehicle: Klucel (hydroxypropylcellulose) (HPC) 101 % of control | dose: 400.0 mg/kg/injection, schedule: Q04DX003 (ip), vehicle: Klucel (hydroxypropylcellulose) (HPC) 98 % of control
